# Test results as given in patent US8188059B2, “Compounds and methods for modulating expression of GCGR” (Isis Pharmaceuticals, Inc., priority 2006, dated 2012).
# Strand notation (5' to 3'): a small letter for the sugar, then the base; units joined by * are phosphorothioate-linked, units joined directly phosphodiester-linked; [ ] holds rarer units or linkages, { } end groups; capitals alone tell only the bases. e = 2'-O-(2-methoxyethyl) (MOE); [5mC] = 5-methylcytosine; d = 2'-deoxy (DNA)
# Assays:
# GCGR mRNA = GCGR mRNA levels in liver and estimated ED50, C57/BL6 mice, single i.p. dose (Example 5, Tables 44, 45); assay type: in vivo, mouse
# Protocol: Eight-week old male C57/BL6 mice (Jackson Laboratory, Bar Harbor, Me.) were administered a single dose of GCGR antisense compound by intraperitonel (i.p.) injection at a concentration of 10, 3.2, 1, and 0.32 μmol·kg. Each dose group consisted of four animals. Shown in Table 43 are the sequences, motifs and conjugates of the GCGR antisense compounds used in this study. Bolded residues indicate 2′-O-methoxyethyl (2′-MOE) modifications and the italicized residues indicate methyleneoxy (4′-CH2—O-2′) BNA modifications. All antisense compounds comprise phosphorothioate internucleoside linkages throughout and each cytosine is replaced with 5-methylcytosine. GCGR antisense compounds target published GCGR nucleic acids, including Genbank Accession No. BC031885.1 (SEQ ID NO: 7).
# To determine whether the phenotypic changes shown above correlated with a decrease in GCGR mRNA, treated animals were evaluated for levels of target mRNA in liver by RT, real time PCR according to methods described herein. Table 44 show results from direct comparisons of the antisense compounds targeting GCGR nucleic acid for their effect on target expression. Results are expressed as percent of saline control.
# mouse SGLT2 mRNA [1] = test: Mouse SGLT2 mRNA levels in kidney, 1-10-1 MOE gapmers, Balb/c mice (Example 14, Table 65); assay type: in vivo
# Protocol: The short antisense compounds were analyzed for their effect on mouse SGLT2 mRNA levels. Data was taken from three experiments in which Male 6-week old Balb/c mice were dosed twice per week for two weeks with 450, 150, or 50 nmol/kg of one of the above 1-10-1 MOE gapmers given by intraperitoneal injection. Mice were sacrificed 48 hours following last administration and evaluated for SGLT2 mRNA levels in kidney. Target levels were determined by RT, real-time PCR as described by other examples herein. PCR results were normalized to an internal ISIS control.
# rat SGLT2 mRNA = test: Rat SGLT2 mRNA levels in kidney, 1-10-1 gapmers at 250 nmol/kg, Sprague-Dawley rats (Example 14, Table 66); assay type: in vivo; conditions: for % change in SGLT2 expression relative to saline: 250 nmol/kg i.p. twice per week for three weeks, Sprague-Dawley rats, kidney
# Protocol: The effect of the above 1-10-1gapmers (see Table 64 above) on rat SGLT2 mRNA levels. Data are taken from four experiments in which male Sprague-Dawley rats (170-200 g) were dosed twice per week for three weeks with 250 nmol/kg given by intraperitoneal injection. Rats were sacrificed 48 hours following last administration and evaluated for SGLT2 mRNA levels in kidney. Target levels were determined by RT, real-time PCR as described by other examples herein. PCR results were normalized to an internal ISIS control.
# mouse SGLT2 mRNA [2] = test: Mouse SGLT2 mRNA levels in kidney, additional 1-10-1 and 2-8-2 MOE gapmers, Balb/c mice (Example 15, Table 68); assay type: in vivo
# Protocol: 1-10-1 and 2-8-2 MOE gapmer short antisense compounds were designed to target different regions of the mouse SGLT2 RNA but have complementarity across species. […] All cytidine residues are 5-methylcytidines.
# The short antisense compounds were analyzed for their effect on mouse SGLT2 mRNA levels in vivo. Data was taken from three experiments in which male 6-week old Balb/c mice were dosed twice per week for three weeks with 0.5, 0.1, or 0.02 umol/kg of either a 1-10-1 or 2-8-2 MOE gapmer given by intraperitoneal injection. Mice were sacrificed 48 hours following last administration and evaluated for SGLT2 levels in kidney. Target levels were determined by RT, real-time PCR as described by other examples herein. PCR results were normalized to an internal ISIS control.
substance,measurement,setting,value
396145 (antisense eA*eT*eG*eG*e[5mC]*dT*dT*d[5mC]*dT*d[5mC]*d[5mC]*dA*dT*d[5mC]*dA*eT*eA*eT*e[5mC]*e[5mC]) [compound 396145],GCGR mRNA levels in liver,GCGR mRNA; 3.2 μmol/kg single i.p.,33% of saline control
same,GCGR mRNA levels in liver,GCGR mRNA; 10 μmol/kg single i.p.,8% of saline control
396147 (antisense e[5mC]*eT*eT*eG*eG*dG*d[5mC]*dA*dT*dG*d[5mC]*dT*d[5mC]*dG*dT*e[5mC]*eA*eG*eT*e[5mC]) [compound 396147],GCGR mRNA levels in liver,GCGR mRNA; 3.2 μmol/kg single i.p.,68% of saline control
same,GCGR mRNA levels in liver,GCGR mRNA; 10 μmol/kg single i.p.,28% of saline control
ISIS 379702: targeted to SGLT2 (antisense eG*d[5mC]*dA*d[5mC]*dA*d[5mC]*dA*dG*d[5mC]*dT*dG*e[5mC]),% change in SGLT2 expression relative to saline,mouse SGLT2 mRNA [1]; 50 nmol/kg i.p. twice per week for two weeks,−52.5%
same,% change in SGLT2 expression relative to saline,mouse SGLT2 mRNA [1]; 150 nmol/kg i.p. twice per week for two weeks,−72.5%
same,% change in SGLT2 expression relative to saline,mouse SGLT2 mRNA [1]; 450 nmol/kg i.p. twice per week for two weeks,−75%
same,% change in SGLT2 expression relative to saline,rat SGLT2 mRNA,−25%
same,% change in SGLT2 expression relative to saline,mouse SGLT2 mRNA [2]; 0.02 umol/kg i.p. twice per week for three weeks,−40%
same,% change in SGLT2 expression relative to saline,mouse SGLT2 mRNA [2]; 0.1 umol/kg i.p. twice per week for three weeks,−65%
same,% change in SGLT2 expression relative to saline,mouse SGLT2 mRNA [2]; 0.5 umol/kg i.p. twice per week for three weeks,−70%
"ISIS 381408: SGLT2; 1-10-1 MOE gapmer (antisense TACCGAACACCT; sugars from the 5' end e1 d10 e1, backbone and methylation of C not given here)",% change in SGLT2 expression relative to saline,rat SGLT2 mRNA,−5%
same,expression of SGLT2 in vivo,"rat SGLT2 mRNA; rat kidney, 250 nmol/kg twice per week for three weeks",Activity of ISIS 381408 has been shown
